Here are results for one compound from patent US20240247031A1, “COMPOSITION FOR TREATING CANCER CONTAINING TELOMERASE-TARGETING GNRH ANTAGONIST-DERIVED PEPTIDE HS1002” (Research & Business Foundation Sungkyunkwan University, priority 2023, published 2024).

One test relates to HEK293-Vector cells. Briefly: Intracellular calcium flux assay, mock-transfected cells. Format: cell-based, human. Conditions: 1 and 10 nM. The procedure:
Human embryonic kidney cell line (HEK293), and mouse cancer cell lines (MC38, 4T1) were purchased from the American Type Culture Collection (Manassas, VA, USA). All cell lines were grown in Dulbecco's Modified Essential Medium (DMEM) or Roswell Park Memorial Institute (RPMI) 1640 supplemented with 10% FBS, 100 U/mL penicillin, and 100 μg/mL streptomycin (WelGENE, Daegu, South Korea) in a humidified atmosphere of 5% CO2 at 37° C. To obtain GnRHR-overexpressing HEK293 (HEK293-GnRHR) cells, transfection of the pCMV-AC-GFP-GnRHR vector (HEK293-GnRHR) was performed using Lipofectamine™ 3000 according to the manufacturer's instructions (Cat. 100022052, Thermo Fisher Scientific, Waltham, MA, USA). Colonies of geneticin-resistant cells were selected by adding G418 (800 μg/mL, Sigma) to the culture medium. The HEK293-pCMV-AC-GFP vector (HEK293-Vector) cells were used as a mock-transfection group.
Intracellular calcium mobilization was measured using the Calcium Flux Assay Kit (Cat. ab233472, abcam) in response to different concentrations of each peptide. The percentage increase was calculated relative to basal fluorescence intensity. The experiment was performed in triplicate.

The next test concerns serum testosterone. The test can be described thus: Serum testosterone level and seminal vesicle weight after repeated injection (FIG. 15). Format: in vivo, mouse. Conditions: male BALB/c mice. The procedure:
6-week-old male BALB/c mice (Jung Ang Lab Animal Inc., Seoul, South Korea) were subcutaneously injected with vehicle or 1 mg/kg/day HS1002 for 10 days. Blood samples were collected 5 h after initial injection and 5 h after last injection. The serum concentration of testosterone was determined using a testosterone ELISA kit (ALPCO Diagnostics, Salem, NH, USA).
GnRH agonists stimulate the release of LH and FSH by binding to GnRHR located on the pituitary gonadotropes and consequently stimulate the secretion of steroid hormone from the gonads. However, continuous exposure to the GnRH agonist results in the downregulation of desensitization of GnRHR and eventually decreases production of testosterone. The inhibitory effect on the pituitary gonadal axis has a role in the anti-prostate cancer effects of GnRH analogs. Based on the HS1002 peptide design strategy, to validate whether HS1002 functions as a GnRHR ligand, the serum testosterone level in male mice was tested after repeated subcutaneous injections of HS1002.

A further test deals with hTERT. Briefly: hTERT mRNA and protein expression, western blot and qPCR (FIG. 10, 11). Format: cell-based, human. The conditions noted are these: LNCaP, different concentrations, western blot. The procedure: To analyze the changes in the hTERT expression level and telomerase activity by the treatment with the produced peptides, real-time PCR was performed. Total RNA was extracted from cells by using an Easy-blue RNA extraction reagent (Intron, Korea), and subsequently, the extracted RNA was reverse transcribed using M-ML V reverse transcriptase (Invitrogen, CA). The PCR reaction was then performed using a LightCycler 480 SYBR Green I Master (Roche, Germany) according to the manufacturer's instructions. […]
Quantitative real-time RT-PCR (qRT-PCR) was performed using a Power SYBR Green 1-Step Kit and an ABI 7000 Real Time PCR System (Applied Biosystems, Carlsbad, CA, USA) according to the manufacturer's indications. […] The results were expressed as the ratio of target PCR product to GAPDH product. […] The quantification was performed using the ΔΔCT method (Applied Biosystems) with the RQ manager 1.2 software. Data are expressed as mean±SD. […]
After treatment with GV1001, HS1001, HS1002, and GnRH, the changes in hTERT mRNA and protein expression level were investigated for each peptide. […] To investigate the telomerase activity reducing effect of the peptides, prostate cancer cell lines (LNCaP) were treated with each drug at 300 μM every 24 h for a total of 72 h and then measured for telomerase activity through qPCR. […]
A general note: Immunoblotting shows a protein as a band on a membrane.

Consider `CCNC(=O)[C@@H]1CCCN1C(=O)[C@@H](NC(=O)[C@H](Cc1ccccc1)NC(=O)[C@H](CCCNC(=N)N)NC(=O)[C@H](CC(C)C)NC(=O)[C@H](CCCNC(=N)N)NC(=O)[C@H](Cc1ccc(O)cc1)NC(=O)[C@H](CO)NC(=O)[C@H](Cc1c[nH]c2ccccc12)NC(=O)[C@H](Cc1c[nH]cn1)NC(=O)[C@@H]1CCC(=O)N1)[C@@H](C)CC` [HS1002], for which the calcium flux result in the test on HEK293-Vector cells is on record as “increased calcium flux”. Moreover, in the test with serum testosterone (1 mg/kg s.c., 5 h after the 1st injection), the “serum testosterone level increase compared to the vehicle-injected group” value amounted to 2.37 fold. Besides, in the test with serum testosterone (1 mg/kg/day s.c., 10 days, vs vehicle), the seminal vesicle weights result is listed as “significantly reduced”. Further, the serum testosterone level entry with serum testosterone (1 mg/kg/day s.c., at 10 days after repeated injection, vs vehicle) was “significantly lower”. In addition, the “hTERT protein expression, concentration dependence” value with hTERT is “reduced with an increasing concentration”.
